Key:
[1] = test system: IκBα; test: TNFα-induced IκBα phosphorylation and degradation, western blot in Jurkat cells; assay type: cell-based, human; conditions: 0.1 μM, 0.1 nM TNF-α 0-90 minutes
Method: The method for IκBα degradation was designed as in reference, The Journal of Immunology, 1999, 103, 6800-6809, the disclosure of which is also incorporated by reference for the teaching of the assay.
Human Jurkat T-cells from American Type Culture Collection (ATCC) were cultivated in Rosewell Park Memorial Institute (RPMI) medium supplemented with 10% fetal bovine serum (FBS), penicillin (100 U/mL) and streptomycin (100 μg/mL) at 37° C. in humidified atmosphere of 95% air-5% CO2. Culture medium was changed every 2-3 days and always 24 hours before harvest. RPMI medium, FBS, CellLytic, anti-β-actin, sodium orthovanadate and anisomycin were purchased from Sigma-Aldrich (USA). TNF-α was purchased from R & D Systems (USA). Complete Protease inhibitor cocktail was procured from Roche.
Jurkat cells were preincubated with vehicle or the compound of example 3 (0.1 μM) for 1 hour in a 37° C., CO2 incubator. For MAPK experiments, the cells were stimulated with anisomycin (10 μg/mL) for 30 minutes. SB 203580 was used as a standard (1 μM). For studies pertaining to degradation of IκBα and IκBα (phospho) the cells were stimulated with 0.1 nM TNF-α for 0, 5, 15, 30, 60 and 90 minutes. […] Aliquots of the resulting extracts were analyzed for their protein content using the Coomassie Plus Protein Assay Reagent (Pierce) following manufacturer's instructions. […]

[2] = test system: IL-8; test: LPS-induced IL-8 release from hPBMCs (ELISA); assay type: cell-based; conditions: Homo sapiens
Method: Cytokine production by lipopolysaccharides (LPS) in hPBMCs (human peripheral blood mononuclear cells) was measured as in reference, Physiol. Res. 2003, 52, 593-598, the disclosure of which is incorporated by reference for the teaching of the assay. Blood was collected from healthy donors into Potassium EDTA vacutainer tubes (BID vacutainer). The PBMC were isolated using gradient centrifugation in Histopaque-1077 solution (Sigma). Isolated PBMC were suspended in RPMI 1640 (Rosewell Park Memorial Institute) culture medium (Sigma-Aldrich Fine Chemicals, USA) containing 10% fetal bovine serum (FBS) (JRH, USA), 100 U/mL penicillin (Sigma Chemical Co. St Louis, Mo., USA) and 100 μg/mL streptomycin (Sigma Chemical Co. St Louis, Mo.). The cell concentration was adjusted to 1×10^6 cells/mL. The viability as determined by trypan blue dye exclusion was uniform Ly≧98%. The cell suspension (100 μL) was added to the wells of a 96-well culture plate. Following cell plating, 79 μL of the culture medium and 1 μL of various concentrations of test compounds (compounds of formula 1) (final concentration 0.001, 0.003, 0.005, 0.01, 0.025, 0.03, 0.05, 0.1, 0.25, 0.3 and 1 μM) dissolved in DMSO (dimethyl sulfoxide, Sigma, Mo., USA) were added to the cells. The final concentration of DMSO was adjusted to 0.5%. The vehicle (0.5% DMSO) was used as control. […]

- IC50 [2]: 1300 nM
SMILES: CN1CC[C@@H](c2c(O)cc(O)c3c(=O)cc(-c4ccc(C(F)(F)F)cc4Cl)oc23)[C@@H]1CO.Cl [Compound of example 3, (+)-trans-2-(2-Chloro-4-trifluoromethyl-phenyl)-5,7-dihydroxy-8-(2-hydroxymethyl-1-methyl-pyrrolidin-3-yl)-chromen-4-one hydrochloride]
- TNFα-induced IkBα phosphorylation and degradation (western blot) [1]: blocks TNFα-induced IkBα phosphorylation and degradation

Source: patent US8906953B2, “Pyrrolidine substitute flavones for the treatment of inflammatory disorders” (Piramal Enterprises Limited, priority 2010, dated 2014)
